Laboratory results reported in US20250129078A1, “ERBB2 INHIBITORS” (Cogent Biosciences, Inc., priority 2023, published 2025).
Like-named read-outs stand apart in the source and are kept apart here.

How the values were obtained:
[1] = biological target: EGFR WT (Homo sapiens (Human), UniProt P00533); assay: ErbB enzyme assay (CisBio HTRF-KinEASE-TK), EGFR WT; assay type: biochemical; conditions: ATP at Km (25 μM), 1 h incubation
Summary of the method: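 Three-fold DMSO serial dilutions were added to kinase reactions and incubated 1 h at room temperature. Quench used 62.5 nM Sa-XL665 plus 0.25×TK-Ab-Cryptate in detection buffer, followed by another 1 h. Substrate phosphorylation was then measured by dual-wavelength HTRF.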

[2] = biological target: ErbB2 V777L (Homo sapiens (Human), UniProt P04626, V777L); assay: ErbB enzyme assay (CisBio HTRF-KinEASE-TK), ErbB2 V777L; assay type: biochemical
Experimental: In vitro enzyme assays based on CisBio HTRF-KinEASE-TK technology were used to determine compound potencies. […] After another 1 h incubation at ambient temperature, the extent of substrate phosphorylation was determined using a PerkinElmer EnVision multimode plate reader via time-resolved fluorescence dual wavelength detection. The percent of control (POC) was calculated using the ratio of emission at […] to the emission at 620 nm. One hundred POC was determined using DMSO only controls (no test compounds present) and zero POC was determined using pre-quenched controls reactions. A 4-parameter logistic equation was fit to the POC values as a function of the test compound concentration and the IC50 value was determined as the point where the curve crossed 50 POC.

[3] = ErbB2 V777L enzyme, ATP at Km (110 μM), 1 h incubation

EGFR WT, sequence (P00533 25-1210): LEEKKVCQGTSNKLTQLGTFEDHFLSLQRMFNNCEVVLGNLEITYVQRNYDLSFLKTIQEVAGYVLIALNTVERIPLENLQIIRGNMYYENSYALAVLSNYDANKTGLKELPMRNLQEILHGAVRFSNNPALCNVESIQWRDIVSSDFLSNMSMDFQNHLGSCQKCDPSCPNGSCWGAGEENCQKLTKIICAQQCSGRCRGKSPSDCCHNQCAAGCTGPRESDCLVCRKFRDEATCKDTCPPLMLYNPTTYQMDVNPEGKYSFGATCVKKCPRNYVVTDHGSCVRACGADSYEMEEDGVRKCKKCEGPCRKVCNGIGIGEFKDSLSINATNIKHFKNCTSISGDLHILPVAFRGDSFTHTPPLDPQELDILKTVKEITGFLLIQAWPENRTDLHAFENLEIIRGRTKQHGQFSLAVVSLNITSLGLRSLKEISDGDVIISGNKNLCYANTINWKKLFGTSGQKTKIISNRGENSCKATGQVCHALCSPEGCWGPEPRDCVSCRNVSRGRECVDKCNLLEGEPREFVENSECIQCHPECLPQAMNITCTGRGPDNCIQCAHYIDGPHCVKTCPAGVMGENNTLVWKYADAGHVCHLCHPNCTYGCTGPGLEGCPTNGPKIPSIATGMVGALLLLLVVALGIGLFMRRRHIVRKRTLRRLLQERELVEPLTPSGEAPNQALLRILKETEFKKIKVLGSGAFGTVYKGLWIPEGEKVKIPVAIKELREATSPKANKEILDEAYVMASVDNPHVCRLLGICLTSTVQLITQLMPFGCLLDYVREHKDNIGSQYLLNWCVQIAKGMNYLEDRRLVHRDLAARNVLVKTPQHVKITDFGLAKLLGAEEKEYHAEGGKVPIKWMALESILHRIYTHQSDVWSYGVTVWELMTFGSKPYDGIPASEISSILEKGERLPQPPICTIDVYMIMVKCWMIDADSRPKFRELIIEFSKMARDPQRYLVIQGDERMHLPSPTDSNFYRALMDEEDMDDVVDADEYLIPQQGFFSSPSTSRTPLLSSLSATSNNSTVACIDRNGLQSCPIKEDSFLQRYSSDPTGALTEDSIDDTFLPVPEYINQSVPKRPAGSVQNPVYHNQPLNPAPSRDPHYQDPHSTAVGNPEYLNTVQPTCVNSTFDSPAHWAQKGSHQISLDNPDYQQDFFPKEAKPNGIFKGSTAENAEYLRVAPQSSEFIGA
ErbB2 V777L, sequence (P04626 23-1255 V777L): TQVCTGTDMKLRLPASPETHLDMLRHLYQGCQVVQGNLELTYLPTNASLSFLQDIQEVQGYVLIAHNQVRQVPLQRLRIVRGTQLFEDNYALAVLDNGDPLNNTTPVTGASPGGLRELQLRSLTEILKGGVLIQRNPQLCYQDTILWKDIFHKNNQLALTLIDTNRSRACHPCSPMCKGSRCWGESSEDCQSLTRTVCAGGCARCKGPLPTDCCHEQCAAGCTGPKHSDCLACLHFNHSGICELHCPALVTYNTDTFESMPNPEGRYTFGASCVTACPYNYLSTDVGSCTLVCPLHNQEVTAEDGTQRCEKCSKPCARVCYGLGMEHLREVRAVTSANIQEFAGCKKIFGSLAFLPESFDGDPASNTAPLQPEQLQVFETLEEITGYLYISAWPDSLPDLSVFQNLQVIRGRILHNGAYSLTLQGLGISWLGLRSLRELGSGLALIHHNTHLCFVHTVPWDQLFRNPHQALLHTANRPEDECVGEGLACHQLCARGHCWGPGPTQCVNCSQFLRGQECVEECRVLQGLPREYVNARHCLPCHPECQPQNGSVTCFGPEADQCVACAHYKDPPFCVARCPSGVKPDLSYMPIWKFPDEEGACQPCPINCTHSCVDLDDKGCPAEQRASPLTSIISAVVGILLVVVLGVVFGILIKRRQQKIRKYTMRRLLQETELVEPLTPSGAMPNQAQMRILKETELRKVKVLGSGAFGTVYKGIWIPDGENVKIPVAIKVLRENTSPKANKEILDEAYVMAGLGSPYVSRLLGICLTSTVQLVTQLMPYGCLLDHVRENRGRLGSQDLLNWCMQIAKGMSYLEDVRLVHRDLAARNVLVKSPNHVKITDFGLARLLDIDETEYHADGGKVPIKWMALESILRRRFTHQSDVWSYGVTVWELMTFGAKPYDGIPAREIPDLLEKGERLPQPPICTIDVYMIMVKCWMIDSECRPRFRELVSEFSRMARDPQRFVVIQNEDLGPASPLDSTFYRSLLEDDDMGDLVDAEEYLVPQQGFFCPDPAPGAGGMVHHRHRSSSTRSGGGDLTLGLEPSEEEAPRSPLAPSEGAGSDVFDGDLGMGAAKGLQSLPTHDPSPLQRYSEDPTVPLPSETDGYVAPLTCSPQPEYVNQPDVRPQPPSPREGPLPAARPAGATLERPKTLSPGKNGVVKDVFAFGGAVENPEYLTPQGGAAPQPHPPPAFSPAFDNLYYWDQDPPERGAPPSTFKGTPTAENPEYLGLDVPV

SMILES: C=CC(=O)NC1CCC(c2ccc3ncnc(Nc4ccc(Oc5ccc6c(c5)nnn6C)c(C)c4)c3n2)CC1 (stereo not drawn) [Compound 400, N-(4-(4-((3-methyl-4-((1-methyl-1H-benzo[d][1,2,3]triazol-5-yl)oxy)phenyl)amino)pyrido[3,2-d]pyrimidin-6-yl)cyclohexyl)acrylamide]
- IC50 [1]: 0.05 to 0.1 µM
- IC50 [2]: 0.1 to 0.5 µM

SMILES: C=CC(=O)N1CCN(c2ncc3ncnc(Nc4cc(C)c(Oc5ccc6c(c5)ncn6C(F)F)cc4OC)c3n2)CC1 [Compound 37, 1-(4-(8-((4-((1-(difluoromethyl)-1H-benzo[d]imidazol-5-y1)oxy)-2-methoxy-5-methylphenyl)amino)pyrimido[5,4-d]pyrimidin-2-yl)piperazin-1-yl)prop-2-en-1-one 2,2,2-trifluoroacetate]
- IC50 [1]: 0.1 to 0.5 µM
- IC50 [2]: 0.05 to 0.1 µM

SMILES: C=CC(=O)N1CCN(c2ncc3ncnc(Nc4cc(C)c(Oc5ccc6c(c5)nnn6C)c(F)c4)c3n2)C[C@H]1C [Compound 155, (R)-1-(4-(8-((3-fluoro-5-methyl-4-((1-methyl-1H-benzo[d][1,2,3]triazol-5-yl)oxy)phenyl)amino)pyrimido[5,4-d]pyrimidin-2-y1)-2-methylpiperazin-1-yl)prop-2-en-1-one]
- IC50 [1]: 0.5 to 1 µM
- IC50 [2]: 0.1 to 0.5 µM

SMILES: C=CC(=O)N1CCN(c2ncc3ncnc(Nc4cc(C)c(Oc5ccc6c(c5)nnn6C)cc4F)c3n2)CC1 [Compound 6, 1-(4-(8-((2-fluoro-5-methyl-4-((1-methyl-1H-benzo[d][1,2,3]triazol-5-yl)oxy)phenyl)amino)pyrimido [5,4-d]pyrimidin-2-yl)piperazin-1-yl)prop-2-en-1-one]
- IC50 [1]: 0.1 to 0.5 µM
- IC50 [2]: 0.1 to 0.5 µM

SMILES: C=CC(=O)N1C[C@H](N(C)c2ccc3ncnc(Nc4ccc(Oc5ccc6c(c5)nnn6C)c(C)c4)c3n2)C[C@H]1C [Compound 266, 1-((2R,4R)-2-methyl-4-(methyl(4-((3-methyl-4-((1-methyl-1H-benzo[d][1,2,3]triazol-5-yl)oxy)phenyl)amino)pyrido[3,2-d]pyrimidin-6-yl)amino)pyrrolidin-1-yl)prop-2-en-1-one]
- IC50 [1]: 0.1 to 0.5 µM
- IC50 [2]: 0.05 to 0.1 µM

SMILES: C=CC(=O)N1CCN(c2ccc3ncnc(Nc4cc(C)c(Oc5ccc6c(c5)nnn6C)cc4OC(F)F)c3n2)CC1 [Compound 315, 1-(4-(4-((2-(difluoromethoxy)-5-methyl-4-((1-methyl-1H-benzo[d][1,2,3]triazol-5-yl)oxy)phenyl)amino)pyrido[3,2-d]pyrimidin-6-yl)piperazin-1-yl)prop-2-en-1-one]
- IC50 [1]: 0.1 to 0.5 µM
- IC50 [2]: 0.05 to 0.1 µM

SMILES: C=CC(=O)N1CCN(c2ncc3ncnc(Nc4ccc(Oc5cnc6c(c5)ncn6C)c(C)c4F)c3n2)C[C@H]1C [Compound 158, (R)-1-(4-(8-((2-fluoro-3-methyl-4-((3-methyl-3H-imidazo[4,5-b]pyridin-6-yl)oxy)phenyl)amino)pyrimido[5,4-d]pyrimidin-2-y1)-2-methylpiperazin-1-yl)prop-2-en-1-one]
- IC50 [1]: 0.1 to 0.5 µM
- IC50 [2]: 0.1 to 0.5 µM

SMILES: C=CC(=O)N1CCN(c2ncc3ncnc(Nc4cc(C)c(Oc5cc(F)c6c(c5)nnn6C)cc4OC)c3n2)C[C@H]1C [Compound 166, (R)-1-(4-(8-((4-((7-fluoro-1-methyl-1H-benzo[d][1,2,3]triazol-5-yl)oxy)-2-methoxy-5-methylphenyl)amino)pyrimido[5,4-d]pyrimidin-2-y1)-2-methylpiperazin-1-yl)prop-2-en-1-one]
- IC50 [2, 3]: 0.5 to 1 µM

SMILES: C=CC(=O)N1CCN(c2ccc3ncnc(Nc4cc(C)c(Oc5ccc6c(c5)ncn6C(F)F)cc4OC)c3n2)C[C@H]1C [Compound 307, (R)-1-(4-(4-((4-((1-(difluoromethyl)-1H-benzo[d]imidazol-5-yl)oxy)-2-methoxy-5-methylphenyl)amino)pyrido[3,2-d]pyrimidin-6-yl)-2-methylpiperazin-1-yl)prop-2-en-1-one]
- IC50 [1]: 0.1 to 0.5 µM
- IC50 [2]: 0.1 to 0.5 µM

SMILES: C=CC(=O)N1C[C@@H]2C[C@H]1CN(c1ncc3ncnc(Nc4ccc(Oc5cc(F)c6c(c5)ncn6C)c(C)c4F)c3n1)C2 [Compound 175, 1-((1R,5S)-3-(8-((2-fluoro-4-((7-fluoro-1-methyl-1H-benzo[d]imidazol-5-y1)oxy)-3-methylphenyl)amino)pyrimido[5,4-d]pyrimidin-2-yl)-3,6-diazabicyclo[3.2.1]octan-6-yl)prop-2-en-1-one]
- IC50 [1]: 0.05 to 0.1 µM
- IC50 [2]: 0.1 to 0.5 µM

SMILES: C=CC(=O)N(C)C1C2CN(c3ncc4ncnc(Nc5ccc(Oc6ccc7c(c6)nnn7C)c(C)c5F)c4n3)CC21 (stereo not drawn) [Compound 226, N-(3-(8-((2-fluoro-3-methyl-4-((1-methyl-1H-benzo[d][1,2,3]triazol-5-yl)oxy)phenyl)amino)pyrimido[5,4-d]pyrimidin-2-yl)-3-azabicyclo[3.1.0]hexan-6-yl)-N-methylacrylamide]
- IC50 [1]: 0.1 to 0.5 µM
- IC50 [2]: 0.1 to 0.5 µM

SMILES: C=CC(=O)N1CC[C@H](N(C)c2ccc3ncnc(Nc4ccc(Oc5ccc6c(c5)nnn6C)c(C)c4)c3n2)[C@@H]1C [Compound 265, 1-((2S,3S)-2-methyl-3-(methyl(4-((3-methyl-4-((1-methyl-1H-benzo[d][1,2,3]triazol-5-yl)oxy)phenyl)amino)pyrido[3,2-d]pyrimidin-6-yl)amino)pyrrolidin-1-yl)prop-2-en-1-one]
- IC50 [1]: 0.1 to 0.5 µM
- IC50 [2]: 0.1 to 0.5 µM

SMILES: C=CC(=O)N1C2C=C(c3ccc4ncnc(Nc5ccc(Oc6ccc7c(c6)nnn7C)c(C)c5)c4n3)CC1CCC2 (stereo not drawn) [Compound 405, 1-(3-(4-((3-methyl-4-((1-methyl-1H-benzo[d][1,2,3]triazol-5-yl)oxy)phenyl)amino)pyrido[3,2-d]pyrimidin-6-yl)-9-azabicyclo[3.3.1]non-2-en-9-yl)prop-2-en-1-one]
- IC50 [1]: 0.5 to 1 µM
- IC50 [2]: 0.1 to 0.5 µM

SMILES: Cc1c(Oc2ccc3c(c2)nnn3C)ccc(Nc2ncnc3ccc(N4CCN(C(=O)/C=C/CF)[C@H](C)C4)nc23)c1F [Compound 360, (R,E)-4-fluoro-1-(4-(4-((2-fluoro-3-methyl-4-((1-methyl-1H-benzo[d][1,2,3]triazol-5-yl)oxy)phenyl)amino)pyrido[3,2-d]pyrimidin-6-yl)-2-methylpiperazin-1-yl)but-2-en-1-one]
- IC50 [1]: 0.1 to 0.5 µM
- IC50 [2]: 0.05 to 0.1 µM

SMILES: C=CC(=O)N(C)C1CC2(C1)CN(c1ncc3ncnc(Nc4ccc(Oc5ccc6c(c5)nnn6C)c(C)c4)c3n1)C2 [Compound 232, N-methyl-N-(2-(8-((3-methyl-4-((1-methyl-H-benzo[d][1,2,3]triazol-5-yl)oxy)phenyl)amino)pyrimido[5,4-d]pyrimidin-2-yl)-2-azaspiro[3.3]heptan-6-yl)acrylamide]
- IC50 [1]: ≥ 1 µM
- IC50 [2]: 0.5 to 1 µM

SMILES: C=CC(=O)N1C2CC1CN(c1ncc3ncnc(Nc4cc(C)c(Oc5ccc6c(c5)nnn6C)cc4OC)c3n1)C2 [Compound 13, 1-(3-(8-((2-methoxy-5-methyl-4-((1-methyl-1H-benzo[d][1,2,3]triazol-5-yl)oxy)phenyl)amino)pyrimido[5,4-d]pyrimidin-2-y1)-3,6-diazabicyclo[3.1.1]heptan-6-yl)prop-2-en-1-one]
- IC50 [1]: 0.1 to 0.5 µM
- IC50 [2]: 0.1 to 0.5 µM

SMILES: C=CC(=O)N1CCN(c2ccc3ncnc(Nc4ccc(Oc5ccc6c(c5)nnn6C)c(C)c4F)c3n2)C[C@H]1C [Compound 246, (R)-1-(4-(4-((2-fluoro-3-methyl-4-((1-methyl-1H-benzo[d][1,2,3]triazol-5-yl)oxy)phenyl)amino)pyrido[3,2-d]pyrimidin-6-yl)-2-methylpiperazin-1-yl)prop-2-en-1-one]
- IC50 [1]: 0.1 to 0.5 µM
- IC50 [2]: 0.05 to 0.1 µM

SMILES: C=CC(=O)N1CCCN(c2ccc3ncnc(Nc4ccc(Oc5ccc6c(c5)nnn6C)c(C)c4)c3n2)CC1 [Compound 353, 1-(4-(4-((3-methyl-4-((1-methyl-1H-benzo[d][1,2,3]triazol-5-yl)oxy)phenyl)amino)pyrido[3,2-d]pyrimidin-6-yl)-1,4-diazepan-1-yl)prop-2-en-1-one]
- IC50 [2, 3]: 0.1 to 0.5 µM

SMILES: C=CC(=O)N[C@H]1C[C@@H](C)CN(c2ncc3ncnc(Nc4ccc(Oc5ccc6c(c5)nnn6C)c(C)c4F)c3n2)C1 (single isomer, unassigned) [Compound 204]
- IC50 [1]: 0.05 to 0.1 µM

SMILES: Cc1cc(Nc2ncnc3ccc(N4CCN(C(=O)/C=C/C(F)F)[C@H](C)C4)nc23)ccc1Oc1ccc2c(c1)nnn2C [Compound 368, (R,E)-4,4-difluoro-1-(2-methyl-4-(4-((3-methyl-4-((1-methyl-1H-benzo[d][1,2,3]triazol-5-yl)oxy)phenyl)amino)pyrido[3,2-d]pyrimidin-6-yl)piperazin-1-yl)but-2-en-1-one]
- IC50 [1]: 0.05 to 0.1 µM

SMILES: C=C(F)C(=O)N1C2CCC1CN(c1ncc3ncnc(Nc4ccc(Oc5ccc6c(c5)nnn6C)c(C)c4)c3n1)C2 [Compound 51, 2-fluoro-1-(3-(8-((3-methyl-4-((1-methyl-1H-benzo[d][1,2,3]triazol-5-yl)oxy)phenyl)amino)pyrimido [5,4-d]pyrimidin-2-yl)-3,8-diazabicyclo [3.2.1]octan-8-yl)prop-2-en-1-one 2,2,2-trifluoroacetate]
- IC50 [1]: ≥ 1 µM

SMILES: C=CC(=O)N1CCN(c2ncc3ncnc(Nc4ccc(Oc5ccc6c(c5)nnn6C)c(C)c4)c3n2)C[C@@H]1C(C)C [Compound 122, (S)-1-(2-isopropyl-4-(8-((3-methyl-4-((1-methyl-1H-benzo[d][1,2,3]triazol-5-yl)oxy)phenyl)amino)pyrimido[5,4-d]pyrimidin-2-yl)piperazin-1-y1)prop-2-en-1-one]
- IC50 [1]: ≥ 1 µM

SMILES: C=C(F)C(=O)N1CCN(c2ncc3ncnc(Nc4ccc(Oc5ccc6c(c5)nnn6C)c(C)c4)c3n2)C[C@H]1CF (single isomer, unassigned) [Compound 219]
- IC50 [1]: ≥ 1 µM
